Measurements taken from patent US11904051B2, “Shear stress sensitive liposomes” (Universität Basel, priority 2018, dated 2024).
Several values for one entry are separate records, joined by “and”; a condition that tells them apart may be missing. Equal values may be shown once.

Key:
[1] = Cryo-TEM of large unilamellar vesicles made of Rad-PC-Rad; type: physicochemical; settings: 509 membrane cuts in cryo-TEM image
Experimental: The inventors measured the cryo-TEM images according to a previously described protocol (Ishikawa et al, J. Mol. Biol. 2007, 368 (5), 1249-1258). The cryo-TEM images recorded from large unilamellar vesicles (LUV) entirely made of Rad-PC-Rad, show a significant number of strongly facetted shapes below the membranes' main phase transition temperature of the membranes (Tm≈45° C.) (FIGS. 6 and 7). The ratio between facetted and spherical vesicles calculated from FIG. 6 is 21:4.
The interdigitation of the leaflets in a membrane can be directly measured from lateral cuts through the membrane in the cryo-TEM image (FIG. 6). To collect statistically relevant data, the inventors measured 509 membrane cuts (FIG. 6) with a mean membrane thickness of 3.20 nm±0.02 nm (N=509). With two times 0.7 nm for the headgroups, the hydrophobic layer is 1.8 nm thick. An all-trans alkyl chain of 16 C-atoms has a length of 2.05 nm. Thus, the alkyl chains would have a tilt angle of 64°, which is physically absurd. Therefore, a full bilayer interdigitation can be assumed.

[2] = SAXS measurement of liposomes under static conditions (glass capillary); type: physicochemical; settings: static condition
Description: The investigated q-range between 0:02 nm^−1 and 1:65 nm^−1 corresponds to real-space distances d between 314 and 3 nm and, therefore, covers almost the entire nanometer range relevant for the characterization of the liposomes. The diagrams in FIG. 11 show the radially integrated scattering signal of DPPC-DSPE/PEG (top panel) and Pad-PC-Pad (bottom panel) liposomes acquired in suitable glass capillaries.
Suitable models are often utilized in the interpretation of the scattering signal of the system investigated. Herein, the scattering curves of DPPC/DSPE-PEG and Pad-PC-Pad were both fitted using a decoupling approach, which allowed to factorize the total form factor as product of a cross section term for long dimension and a cross section term for shorter dimension (Porod et al., IV. Acta Physica Austriaca 1948, 2, 255-292). To fit the form factor related to the overall shape of DPPC/DSPE-PEG, a thin spherical shell model was used (Breÿler et al., Journal of Applied Crystallography 2015, 48, 1587-1598), whereas the intensity peak related to the bilayer was fitted using a function for a bilayer with a Gaussian electron density profile (Pabst et al., Journal of Applied Crystallography 2003, 36, 1378-1388; Pabst et al., Physical Review E 2000, 62, 4000). The model utilized to fit the bilayer provided the bilayer thickness as the distance head-to-head dhh between the two phospholipid heads and the standard deviation over the phoshpolipid heads.
To fit the form factor related to the overall shape of Pad-PC-Pad a thin ellipsoidal shell model was used (Olson et al., Biochimica et Biophysica Acta (BBA)—Biomembranes 1979, 557, 9-23). An eccentricity E of 0.43 was found. As for DPPC/DSPE-PEG, the intensity peak related to the phospholipid head-to-head distance dhh was fitted using a function for a bilayer with a Gaussian electron density profile (Pabst et al., Journal of Applied Crystallography 2003, 36, 1378-1388; Pabst et al., Physical Review E 2000, 62, 4000) and a normal distribution over dhh. […]

mean membrane thickness [1] [nm] | head-to-head distance dhh ([2]; bilayer Gauss electron density profile model) | Radius of gyration Rg ([2]; glass capillary, flow rate 0) | eccentricity ε ([2]; thin ellipsoidal shell model) | Compound
3.20 | – | – | – | CCCCCCCCCCCCCCCCC(=O)NCC(CNC(=O)CCCCCCCCCCCCCCCC)OP(=O)([O-])OCC[N+](C)(C)C [Rad-PC-Rad, 1,3-diheptadecanamidopropan-2-yl (2-(trimethylammonio)ethyl) phosphate]
– | 3.3±0.8 nm and 3.3 nm | 60.3 nm and 60.3 ± 0.4 nm | 0.43 | CCCCCCCCCCCCCCCC(=O)NCC(CNC(=O)CCCCCCCCCCCCCCC)OP(=O)([O-])OCC[N+](C)(C)C [Pad-PC-Pad, 1,3-palmitoylamido-1,3-deoxy-sn-glycero-2-phosphatidylcholine]
